Measurements published in patent US20240002438A1, “MELANOCORTIN LIGANDS AND METHODS OF USE THEREOF” (REGENTS OF THE UNIVERSITY OF MINNESOTA, priority 2021, published 2024).
Read-outs that look alike come from different tables or passages of the source. Each block holds one compound with its values, some of them ahead of it. Where a SMILES comes first, the peptide text is derived from it. [ ]: non-standard residue; d: D form. dPhe(4-I) = N[C@H](Cc1ccc(I)cc1)C(=O)O; 2Nal = N[C@@H](Cc1ccc2ccccc2c1)C(=O)O; d2Nal = N[C@H](Cc1ccc2ccccc2c1)C(=O)O

Columns and labels:
mMC4R [1] = target: T1, mMC4R (Mus musculus, UniProt P56450); test: mMC4R | Antagonist Potency Ki (nM); set-up: expressed in transfected cells; host or cells: HEK293
Description: (§1) Table printed on a drawing sheet, FIGURE 18
(§2) Title: Tetrapeptide Antagonist Pharmacology at the Mouse Melanocortin Receptors.^a
Head of the field: mMC4R | Antagonist Potency Ki (nM)
(§3) First copying reader's note: Columns 4 and 7 are empty spacer columns as printed; the table runs off the bottom of the sheet (continued on the next sheet) and footnotes a and b are not printed here.
Target sequence in this assay (P56450 whole entry, looked up): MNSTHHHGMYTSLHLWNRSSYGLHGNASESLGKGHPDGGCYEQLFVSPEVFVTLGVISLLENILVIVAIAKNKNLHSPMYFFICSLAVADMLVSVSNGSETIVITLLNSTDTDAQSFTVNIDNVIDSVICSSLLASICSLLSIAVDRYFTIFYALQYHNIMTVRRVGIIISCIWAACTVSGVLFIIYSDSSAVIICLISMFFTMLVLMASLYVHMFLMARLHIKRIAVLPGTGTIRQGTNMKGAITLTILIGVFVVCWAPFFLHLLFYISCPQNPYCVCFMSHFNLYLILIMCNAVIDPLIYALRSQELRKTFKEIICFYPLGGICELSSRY

mMC3R [2] = target: T2, mMC3R (Mus musculus, UniProt P33033); test: mMC3R | Antagonist Potency Ki (nM); set-up: expressed in transfected cells; host or cells: HEK293
Description: as §1, §2
Target sequence in this assay (P33033 whole entry, looked up): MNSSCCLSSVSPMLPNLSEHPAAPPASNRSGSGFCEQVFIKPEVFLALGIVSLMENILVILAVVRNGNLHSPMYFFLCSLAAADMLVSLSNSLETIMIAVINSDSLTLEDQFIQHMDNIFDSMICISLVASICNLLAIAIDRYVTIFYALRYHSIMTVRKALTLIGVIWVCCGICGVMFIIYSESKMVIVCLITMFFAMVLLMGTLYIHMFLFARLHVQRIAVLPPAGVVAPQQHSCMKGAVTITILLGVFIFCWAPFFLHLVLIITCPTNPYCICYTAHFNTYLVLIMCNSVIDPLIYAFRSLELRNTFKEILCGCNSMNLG
Head of the field: mMC3R | Antagonist Potency Ki (nM)
as §3

mMC5R = mMC5R (Mus musculus, UniProt P41149); test: cAMP AlphaScreen agonist assay at mMC5R, HEK293 cells; settings: for mMC5R agonist activity: up to 100 μM; for mMC5R partial stimulation, % of the maximal NDP-MSH signal: 100 μM
Sequence of mMC5R (P41149 whole entry): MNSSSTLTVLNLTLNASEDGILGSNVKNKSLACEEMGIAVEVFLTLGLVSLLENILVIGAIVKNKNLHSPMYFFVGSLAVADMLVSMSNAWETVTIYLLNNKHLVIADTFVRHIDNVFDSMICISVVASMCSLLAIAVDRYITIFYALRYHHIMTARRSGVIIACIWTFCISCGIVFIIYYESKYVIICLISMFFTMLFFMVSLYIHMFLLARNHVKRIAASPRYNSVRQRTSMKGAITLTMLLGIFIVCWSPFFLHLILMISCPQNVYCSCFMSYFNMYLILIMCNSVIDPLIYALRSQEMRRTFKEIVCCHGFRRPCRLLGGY
Description: (§4) Following stimulation, streptavidin donor beads (0.5 μg) and biotinylated-cAMP (0.62 μmol) were added to the wells in a green light environment with 10 μL of lysis buffer (5 mM HEPES, 0.3% Tween-20, 0.1% BSA, pH=7.4) and the plates were incubated in the dark at room temperature for an additional 2 h. Plates were read on a Enspire (PerkinElmer) Alpha-plate reader using a pre-normalized assay protocol (set by the manufacturer).

mMC3R [3] = target: T2, mMC3R; test: cAMP AlphaScreen antagonist assay at mMC3R, NDP-MSH as agonist, HEK293 cells; settings: for mMC3R antagonist activity: at the concentrations assayed; for mMC3R antagonist pA2: NDP-MSH as agonist, HEK293 cells stably expressing mMC3R
Target sequence in this assay (P33033 whole entry): as the sequence (P33033 whole entry, looked up) above

mMC1R [4] = target: T3, mMC1R (Mus musculus, UniProt Q01727); test: cell-based
T3 sequence (Q01727 whole entry): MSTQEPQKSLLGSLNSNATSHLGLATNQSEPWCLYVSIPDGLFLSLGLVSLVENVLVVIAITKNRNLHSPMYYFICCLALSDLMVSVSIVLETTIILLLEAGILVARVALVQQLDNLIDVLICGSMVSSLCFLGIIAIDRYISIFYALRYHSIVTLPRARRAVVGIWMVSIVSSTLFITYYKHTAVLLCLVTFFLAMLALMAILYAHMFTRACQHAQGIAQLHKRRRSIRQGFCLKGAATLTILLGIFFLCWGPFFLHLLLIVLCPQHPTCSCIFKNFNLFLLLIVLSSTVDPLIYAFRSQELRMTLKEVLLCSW
Description: as §4

mMC4R [5] = target: T1, mMC4R; test: cAMP AlphaScreen antagonist assay at mMC4R, NDP-MSH as agonist, HEK293 cells; settings: NDP-MSH as agonist; HEK293 cells stably expressing mMC4R
Target sequence in this assay (P56450 whole entry): as the sequence (P56450 whole entry, looked up) above
Description: as §4

mMC1R [6] = target: T3, mMC1R; settings: up to 100 μM
Description: as §4

Ki (mMC4R [1]): 200 nM | Ki (mMC3R [2]): 1600 nM
Compound: CC(=O)N[C@H](Cc1ccc2ccccc2c1)C(=O)N[C@H](Cc1ccc2ccccc2c1)C(=O)N[C@@H](Cc1c[nH]c2ccccc12)C(=O)N[C@H](CCCCN)C(N)=O [4 | COR1-29-2, Ac-DNal(2’)-DNal(2’)-Trp-DLys-NH2] (Ac-[d2Nal][d2Nal]W[dK]-NH2)

Compound: CC(=O)N[C@H](Cc1ccc2ccccc2c1)C(=O)N[C@@H](CCCNC(=N)N)C(=O)N[C@H](Cc1ccc2ccccc2c1)C(=O)N[C@H](CCCCN)C(N)=O [13 | COR1-29-5, Ac-DNal(2’)-Arg-DNal(2’)-DLys-NH2] (Ac-[d2Nal]R[d2Nal][dK]-NH2)
Ki (mMC4R [1]): 6.3 nM | Ki (mMC3R [2]): 1000 nM

Compound: CC(=O)N[C@H](Cc1ccc2ccccc2c1)C(=O)N[C@@H](CCCNC(=N)N)C(=O)N[C@H](Cc1ccc2ccccc2c1)C(=O)N[C@H](Cc1ccc2ccccc2c1)C(N)=O [14 | COR2-57, Ac-DNal(2’)-Arg-DNal(2’)-DNal(2’)-NH2] (Ac-[d2Nal]R[d2Nal][d2Nal]-NH2)
Ki (mMC4R [1]): 500 nM | Ki (mMC3R [2]): 2000 nM

Compound: CC(=O)N[C@H](Cc1ccc2ccccc2c1)C(=O)N[C@@H](CCCNC(=N)N)C(=O)N[C@H](Cc1ccc2ccccc2c1)C(=O)N[C@@H](CCCNC(=N)N)C(N)=O [15 | COR2-93, Ac-DNal(2’)-Arg-DNal(2’)-Arg-NH2] (Ac-[d2Nal]R[d2Nal]R-NH2)
Ki (mMC4R [1]): 5 nM | Ki (mMC3R [2]): 790 nM

Compound: CC(=O)N[C@H](Cc1ccc2ccccc2c1)C(=O)N[C@@H](CCCNC(=N)N)C(=O)N[C@@H](Cc1c[nH]c2ccccc12)C(=O)N[C@H](CCCCN)C(N)=O [16 | COR1-29-6, Ac-DNal(2’)-Arg-Trp-DLys-NH2] (Ac-[d2Nal]RW[dK]-NH2)
Ki (mMC4R [1]): 20 nM | Ki (mMC3R [2]): 3200 nM

Compound: CC(=O)N[C@H](Cc1ccc2ccccc2c1)C(=O)N[C@@H](CCCNC(=N)N)C(=O)N[C@@H](Cc1c[nH]c2ccccc12)C(=O)N[C@H](Cc1ccc2ccccc2c1)C(N)=O [17 | COR1-60, Ac-DNal(2’)-Arg-Trp-DNal(2’)-NH2] (Ac-[d2Nal]RW[d2Nal]-NH2)
Ki (mMC4R [1]): 100 nM | Ki (mMC3R [2]): 2000 nM

Compound: CC(=O)N[C@H](Cc1ccc2ccccc2c1)C(=O)N[C@@H](CCCNC(=N)N)C(=O)N[C@@H](Cc1c[nH]c2ccccc12)C(=O)N[C@@H](CCCNC(=N)N)C(N)=O [18 | MDE10-27, Ac-DNal(2’)-Arg-Trp-Arg-NH2] (Ac-[d2Nal]RWR-NH2)
Ki (mMC4R [1]): 5 nM | Ki (mMC3R [2]): 160 nM

Compound: CC(=O)N[C@H](Cc1ccc2ccccc2c1)C(=O)N[C@@H](CCCNC(=N)N)C(=O)N[C@H](Cc1ccc(I)cc1)C(=O)N[C@H](CCCCN)C(N)=O [19 | COR1-29-7, Ac-DNal(2’)-Arg-DPhe(pI)-DLys-NH2]
Ki (mMC4R [1]): 3.2 nM | Ki (mMC3R [2]): 130 nM

Compound: CC(=O)N[C@H](Cc1ccc2ccccc2c1)C(=O)N[C@@H](CCCNC(=N)N)C(=O)N[C@H](Cc1ccc(I)cc1)C(=O)N[C@H](Cc1ccc2ccccc2c1)C(N)=O [20 | COR2-15, Ac-DNal(2’)-Arg-DPhe(pI)-DNal(2’)-NH2] (Ac-[d2Nal]R[dPhe(4-I)][d2Nal]-NH2)
Ki (mMC4R [1]): 320 nM | Ki (mMC3R [2]): 790 nM

Compound: CC(=O)N[C@H](Cc1ccc2ccccc2c1)C(=O)N[C@@H](CCCNC(=N)N)C(=O)N[C@H](Cc1ccc(I)cc1)C(=O)N[C@@H](CCCNC(=N)N)C(N)=O [21 | COR2-105, Ac-DNal(2’)-Arg-DPhe(pI)-Arg-NH2] (Ac-[d2Nal]R[dPhe(4-I)]R-NH2)
Ki (mMC4R [1]): 2.5 nM | Ki (mMC3R [2]): 79 nM

Compound: CC(=O)N[C@H](Cc1ccc2ccccc2c1)C(=O)N[C@@H](CCCNC(=N)N)C(=O)N[C@@H](Cc1ccc2ccccc2c1)C(=O)N[C@H](CCCCN)C(N)=O [22 | COR1-29-8, Ac-DNal(2’)-Arg-Nal(2’)-DLys-NH2] (Ac-[d2Nal]R[2Nal][dK]-NH2)
Ki (mMC4R [1]): 16 nM | Ki (mMC3R [2]): 630 nM

Compound: CC(=O)N[C@H](Cc1ccc2ccccc2c1)C(=O)N[C@@H](CCCNC(=N)N)C(=O)N[C@@H](Cc1ccc2ccccc2c1)C(=O)N[C@H](Cc1ccc2ccccc2c1)C(N)=O [23 | COR2-33, Ac-DNal(2’)-Arg-Nal(2’)-DNal(2’)-NH2] (Ac-[d2Nal]R[2Nal][d2Nal]-NH2)
Ki (mMC4R [1]): 200 nM

Compound: CC(=O)N[C@H](Cc1ccc2ccccc2c1)C(=O)N[C@@H](CCCNC(=N)N)C(=O)N[C@@H](Cc1ccc2ccccc2c1)C(=O)N[C@@H](CCCNC(=N)N)C(N)=O [24 | MDE10-28, Ac-DNal(2’)-Arg-Nal(2’)-Arg-NH2] (Ac-[d2Nal]R[2Nal]R-NH2)
Ki (mMC4R [1]): 1.6 nM | Ki (mMC3R [2]): 100 nM

Compound: CC(=O)N[C@H](Cc1ccc(I)cc1)C(=O)N[C@H](Cc1ccc2ccccc2c1)C(=O)N[C@H](Cc1ccc2ccccc2c1)C(=O)N[C@H](CCCCN)C(N)=O [25 | COR1-80, Ac-DPhe(pI)-DNal(2’)-DNal(2’)-DLys-NH2] (Ac-[dPhe(4-I)][d2Nal][d2Nal][dK]-NH2)
Ki (mMC4R [1]): 500 nM

EC50 (mMC5R): 30 to 800 nM | EC50 (mMC5R; read-out: mMC5R agonist EC50): 130 nM | mMC5R agonist activity (mMC5R): full mMC5R agonists | mMC3R antagonist activity (mMC3R [3]): did not act as antagonists
Compound: CC(=O)N[C@H](Cc1ccc2ccccc2c1)C(=O)N[C@H](Cc1ccc2ccccc2c1)C(=O)N[C@H](Cc1ccc2ccccc2c1)C(=O)N[C@@H](CCCNC(=N)N)C(N)=O [compound 3, Ac-DNal(2′)-DNal(2′)-DNal(2′)-Arg-NH2] (Ac-[d2Nal][d2Nal][d2Nal]R-NH2)

EC50 (mMC5R): 30 to 800 nM | EC50 (mMC5R; read-out: mMC5R agonist EC50): 30 nM | mMC5R agonist activity (mMC5R): full mMC5R agonists | mMC3R antagonist activity (mMC3R [3]): did not act as antagonists
Compound: CC(=O)N[C@H](Cc1ccc2ccccc2c1)C(=O)N[C@H](Cc1ccc2ccccc2c1)C(=O)N[C@H](Cc1ccc(I)cc1)C(=O)N[C@@H](CCCNC(=N)N)C(N)=O [compound 9, Ac-DNal(2′)-DNal(2′)-DPhe(pI)-Arg-NH2] (Ac-[d2Nal][d2Nal][dPhe(4-I)]R-NH2)

Compound: CC(=O)N[C@H](Cc1ccc2ccccc2c1)C(=O)N[C@@H](CCCNC(=N)N)C(=O)N[C@H](Cc1ccc2ccccc2c1)C(=O)N[C@H](CCCCN)C(N)=O [compound 13, Ac-DNal(2′)-Arg-DNal(2′)-DLys-NH2] (Ac-[d2Nal]R[d2Nal][dK]-NH2)
EC50 (mMC1R [4]): 400 to 7900 nM

Compound: CC(=O)N[C@H](Cc1ccc2ccccc2c1)C(=O)N[C@@H](CCCNC(=N)N)C(=O)N[C@H](Cc1ccc2ccccc2c1)C(=O)N[C@H](Cc1ccc2ccccc2c1)C(N)=O [compound 14] (Ac-[d2Nal]R[d2Nal][d2Nal]-NH2)
EC50 (mMC1R [4]): 400 to 7900 nM

Compound: CC(=O)N[C@H](Cc1ccc2ccccc2c1)C(=O)N[C@@H](CCCNC(=N)N)C(=O)N[C@H](Cc1ccc2ccccc2c1)C(=O)N[C@@H](CCCNC(=N)N)C(N)=O [compound 15, Ac-DNal(2′)-Arg-DNal(2′)-Arg-NH2] (Ac-[d2Nal]R[d2Nal]R-NH2)
EC50 (mMC1R [4]): 400 to 7900 nM

mMC5R agonist activity (mMC5R): full mMC5R agonists | mMC3R antagonist activity (mMC3R [3]): did not act as antagonists
Compound: CC(=O)N[C@H](Cc1ccc(I)cc1)C(=O)N[C@H](Cc1ccc2ccccc2c1)C(=O)N[C@H](Cc1ccc2ccccc2c1)C(=O)N[C@@H](CCCNC(=N)N)C(N)=O [compound 27, Ac-DPhe(pI)-DNal(2′)-DNal(2′)-Arg-NH2] (Ac-[dPhe(4-I)][d2Nal][d2Nal]R-NH2)

Compound: CC(=O)N[C@H](Cc1ccc(I)cc1)C(=O)N[C@H](Cc1ccc2ccccc2c1)C(=O)N[C@@H](Cc1ccc2ccccc2c1)C(=O)N[C@@H](CCCNC(=N)N)C(N)=O [compound 36, Ac-DPhe(pI)-DNal(2′)-Nal(2′)-Arg-NH2] (Ac-[dPhe(4-I)][d2Nal][2Nal]R-NH2)
EC50 (mMC5R): 30 to 800 nM | mMC5R agonist activity (mMC5R): full mMC5R agonists | mMC4R antagonist pA2 (mMC4R [5]): 5.8 | mMC3R antagonist activity (mMC3R [3]): did not act as antagonists

mMC1R agonist activity (mMC1R [6]): full agonist activity
Compound: Ac-DNal(2′)-Arg-DPhe(pI)-Arg-NH2 [compound 21]

mMC1R agonist activity (mMC1R [6]): full agonist activity
Compound: Ac-DNal(2′)-Arg-DPhe(pI)-DLys-NH2 [compound 19]

mMC5R partial stimulation, % of the maximal NDP-MSH signal (mMC5R): 40%
Compound: Ac-DNal(2′)-DNal(2′)-Nal(2′)-Arg-NH2 [compound 12]

mMC3R antagonist pA2 (mMC3R [3]): 5.8
Compound: Ac-DNal(2′)-DNal(2′)-Trp-DLys-NH2 [compound 4]

mMC1R agonist activity (mMC1R [6]): full agonist activity
Compound: Ac-DPhe(pI)-Arg-DPhe(pI)-Arg-NH2 [compound 45]

mMC1R agonist activity (mMC1R [6]): full agonist activity
Compound: Ac-DPhe(pI)-Arg-DPhe(pI)-DLys-NH2 [compound 43]

mMC4R antagonist pA2 (mMC4R [5]): 6.3
Compound: Ac-DPhe(pI)-DNal(2′)-DNal(2′)-DLys-NH2 [compound 25]

mMC5R partial stimulation, % of the maximal NDP-MSH signal (mMC5R): 50%
Compound: Ac-DPhe(pI)-DNal(2′)-Nal(2′)-DLys-NH2 [compound 34]

mMC5R agonist activity (mMC5R): inactive | mMC4R antagonist pA2 (mMC4R [5]): 5.6
Compound: Ac-DPhe(pI)-DNal(2′)-Trp-Arg-NH2 [compound 30]

mMC4R antagonist pA2 (mMC4R [5]): 6.6 | mMC3R antagonist pA2 (mMC3R [3]): 5.7
Compound: Ac-DPhe(pI)-DNal(2′)-Trp-DLys-NH2 [compound 28]

mMC4R antagonist pA2 (mMC4R [5]): 7.7
Compound: Ac-[d2Nal]RW[dK]-NH2 [compound 16]

mMC4R antagonist pA2 (mMC4R [5]): 8.8
Compound: Ac-[d2Nal]R[2Nal]R-NH2 [compound 24]

mMC5R partial stimulation, % of the maximal NDP-MSH signal (mMC5R): 45%
Compound: Ac-[d2Nal][d2Nal]WR-NH2 [compound 6]

mMC4R antagonist pA2 (mMC4R [5]): 7.6
Compound: Ac-[dPhe(4-I)]RW[dK]-NH2 [compound 40]
